Tests used:
[1] = target: T1, Peroxisome proliferator-activated receptor alpha (Homo sapiens, UniProt Q07869); test: Inhibitory concentration against human peroxisome proliferator activated receptor alpha in SPA assay
T1 sequence (Q07869 whole entry): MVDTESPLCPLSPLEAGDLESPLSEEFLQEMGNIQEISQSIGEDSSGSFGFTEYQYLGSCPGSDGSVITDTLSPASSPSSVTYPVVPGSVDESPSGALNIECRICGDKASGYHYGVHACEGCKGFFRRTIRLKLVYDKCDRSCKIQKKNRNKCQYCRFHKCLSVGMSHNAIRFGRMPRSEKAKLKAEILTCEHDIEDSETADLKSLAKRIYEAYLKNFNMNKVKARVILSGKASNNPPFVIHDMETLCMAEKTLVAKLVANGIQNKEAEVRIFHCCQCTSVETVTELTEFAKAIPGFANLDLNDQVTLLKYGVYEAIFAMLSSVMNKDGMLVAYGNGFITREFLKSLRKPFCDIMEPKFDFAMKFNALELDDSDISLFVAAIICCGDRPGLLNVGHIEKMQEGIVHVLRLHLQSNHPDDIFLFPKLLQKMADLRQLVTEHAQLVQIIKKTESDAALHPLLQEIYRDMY

[2] = target: T2, Peroxisome proliferator-activated receptor gamma (Homo sapiens, UniProt P37231); test: Effective agonist concentration for human PPAR gamma Gal4 construct in transactivation assay; format: functional
T2 sequence (P37231 whole entry): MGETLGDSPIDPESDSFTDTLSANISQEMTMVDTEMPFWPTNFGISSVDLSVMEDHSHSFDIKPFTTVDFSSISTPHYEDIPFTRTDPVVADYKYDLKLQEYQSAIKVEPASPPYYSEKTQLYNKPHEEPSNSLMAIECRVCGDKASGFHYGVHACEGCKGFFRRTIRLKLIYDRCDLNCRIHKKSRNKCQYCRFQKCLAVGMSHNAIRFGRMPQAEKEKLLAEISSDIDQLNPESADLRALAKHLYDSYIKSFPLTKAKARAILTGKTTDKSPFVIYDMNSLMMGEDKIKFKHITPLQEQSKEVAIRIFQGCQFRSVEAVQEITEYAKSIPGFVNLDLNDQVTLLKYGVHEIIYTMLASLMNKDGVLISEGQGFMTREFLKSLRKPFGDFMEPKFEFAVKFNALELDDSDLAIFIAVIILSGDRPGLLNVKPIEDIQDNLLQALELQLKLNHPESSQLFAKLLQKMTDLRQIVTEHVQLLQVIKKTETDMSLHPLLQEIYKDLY

[3] = target: T2, Peroxisome proliferator-activated receptor gamma
Description: Inhibitory concentration against human peroxisome proliferator activated receptor gamma in SPA assay

[4] = Area under curve at normal dose was determined; format: ADME
[5] = Half life at normal dose was determined; format: ADME
[6] = Bioavailability; format: ADME, organism-based; settings: eutheria, in vivo

| IC50 [1] [nM] | EC50 [2] [nM] | IC50 [3] [nM] | half-life [5] [min] | bioavailability [6] [%] | SMILES | AUC [4] [µM·h] |
| --- | --- | --- | --- | --- | --- | --- |
| 4150 | 91 | 18 |  |  | CC(C)COc1ccc2c(c1)c(Oc1cccc(C(F)(F)F)c1)c(C(=O)O)n2-c1ccc(C(C)(C)C)cc1 |  |
| 4480 |  | 13 |  |  | CC(C)(C)c1ccc(-n2c(C(=O)O)c(Oc3ccc(Cl)c(C(F)(F)F)c3)c3cc(Cl)ccc32)cc1 |  |
| > 50000 |  | 318 |  |  | CC(C)(C)c1ccc(-n2c(C(=O)O)c(Oc3cccc(C(F)(F)F)c3)c3cc(O)ccc32)cc1 |  |
| 6270 | 34 | 18 |  |  | CCOc1ccc2c(c1)c(Oc1cccc(C(F)(F)F)c1)c(C(=O)O)n2-c1ccc(C(C)(C)C)cc1 |  |
| > 15000 | 299 | 100 |  |  | COc1ccc2c(Oc3cccc(C(F)(F)F)c3)c(C(=O)O)n(-c3ccc(C(C)(C)C)cc3)c2n1 |  |
| > 15000 | 106 | 27 |  |  | CC(C)(C)c1ccc(-n2c(C(=O)O)c(Oc3cccc(C(F)(F)F)c3)c3ccc(Cl)cc32)cc1 |  |
|  | 126 |  |  |  | CC(C)(C)c1ccc(-n2c(C(=O)O)c(Oc3cccc(C(F)(F)F)c3)c3cc(Oc4ccccn4)ccc32)cc1 |  |
| > 15000 |  | 39 |  |  | COc1ccc2c(c1)c(Oc1cccc(C(F)(F)F)c1)c(C(=O)O)n2-c1ccc(C(C)(C)C)cc1 |  |
| > 15000 | 136 | 17 |  |  | CC(C)(C)c1ccc(-n2c(C(=O)O)c(Oc3cccc(C(F)(F)F)c3)c3cc(Cl)ccc32)cc1 |  |
|  | 6 |  | 48 | 2.4 | CC(C)(C)c1ccc(-n2c(C(=O)O)c(Oc3cccc(C(F)(F)F)c3)c3cc(Oc4cc(C(F)(F)F)ccn4)ccc32)cc1 |  |
| > 15000 | 2 | 2 | 108 | 9.8 | CC(C)(C)c1ccc(-n2c(C(=O)O)c(Oc3cccc(C(F)(F)F)c3)c3cc(Oc4cc(Cl)c[nH]4)ccc32)cc1 | 0.3 |

More lines, now with the values behind:

| SMILES | IC50 [1] [nM] | EC50 [2] [nM] | IC50 [3] [nM] | half-life [5] [min] | bioavailability [6] [%] | AUC [4] [µM·h] |
| --- | --- | --- | --- | --- | --- | --- |
| CC(C)c1cccc(-n2c(C(=O)O)c(Oc3ccc(C(F)(F)F)cc3)c3ccccc32)c1 | > 15000 |  | 120 |  |  |  |
| COc1cccc(Oc2c(C(=O)O)n(-c3ccc(C(C)(C)C)cc3)c3nc(Cl)ccc23)c1 | > 15000 | 755 | 104 |  |  |  |
| O=C(O)c1c(Sc2ccccc2)c2cc(Cl)ccc2n1Cc1ccc(Cl)cc1 | > 15000 |  |  |  |  |  |
| CC(C)(C)c1ccc(-n2c(C(=O)O)c(Oc3cccc(-c4cc(C(F)(F)F)c[nH]4)c3)c3ccc(Cl)nc32)cc1 | > 50000 | 95 | 58 |  |  |  |
| CC(C)(C)c1ccc(-n2c(C(=O)O)c(Oc3cccc(C(F)(F)F)c3)c3ccc(Cl)nc32)cc1 | > 15000 | 176 | 21 |  |  |  |
| CC(C)(C)c1ccc(-n2c(C(=O)O)c(Oc3cc(C(F)(F)F)cc(C(F)(F)F)c3)c3cc(Cl)ccc32)cc1 | > 15000 |  | 83 |  |  |  |
| CC(C)(C)c1ccc(-n2c(C(=O)O)c(Oc3ccc(-c4cc(C(F)(F)F)c[nH]4)cc3)c3cccnc32)cc1 | > 50000 | 34 | 251 |  |  |  |
| COc1ccc(-n2c(C(=O)O)c(Oc3cccc(C(F)(F)F)c3)c3ccccc32)cc1 | > 50000 | 334 | 115 |  |  |  |
| O=C(O)c1c(Oc2cccc(C(F)(F)F)c2)c2ccccc2n1-c1ccc(C(F)(F)F)cc1 | 3200 |  | 107 |  |  |  |
| CCOc1cccc(Oc2c(C(=O)O)n(-c3ccc(C(C)(C)C)cc3)c3ccccc23)c1 | > 50000 | 233 | 49 |  |  |  |
| CC(C)(C)c1ccc(-n2c(C(=O)O)c(Oc3cccc(C(F)(F)F)c3)c3ccccc32)cc1 | 10600 | 13 | 12 | 30 |  | 9.19 |
| CC(C)c1cccc(-n2c(C(=O)O)c(Oc3cccc(C(F)(F)F)c3)c3ccccc32)c1 | > 15000 |  | 60 |  |  |  |
| CC(C)(C)c1ccc(-n2c(C(=O)O)c(Oc3cccc(S(C)(=O)=O)c3)c3ccc(Cl)nc32)cc1 | > 50000 |  | 202 |  |  |  |
| CC(C)(C)c1ccc(-n2c(C(=O)O)c(Oc3cccc(C(F)(F)F)c3)c3cccnc32)cc1 | > 50000 | 464 | 75 |  |  |  |
| CC(C)c1cccc(Oc2c(C(=O)O)n(-c3ccc(C(C)(C)C)cc3)c3cc(Cl)ccc23)c1 | > 15000 |  | 19 |  |  |  |
| CC(C)(C)c1ccc(-n2c(C(=O)O)c(Oc3ccc(OC(F)(F)F)cc3)c3ccccc32)cc1 | 3580 |  | 49 |  |  |  |
| CC(C)(C)c1ccc(-n2c(C(=O)O)c(Oc3cccc(O)c3)c3ccccc32)cc1 | > 50000 | 161 | 78 |  |  |  |
| CC(C)c1cccc(-n2c(C(=O)O)c(Oc3cccc(O)c3)c3ccccc32)c1 | > 50000 |  | 102 |  |  |  |
| CC(C)(C)c1ccc(-n2c(C(=O)O)c(Oc3ccc(Cl)cc3)c3ccc(OC(F)(F)F)cc32)cc1 | > 15000 | 411 | 298 |  |  |  |

Source: ChEMBL document CHEMBL1143644, “Synthesis and biological activities of novel aryl indole-2-carboxylic acid analogs as PPARgamma partial agonists” (Bioorg Med Chem Lett, 2005)
